The test system of assay [1] is transgenic AAD mouse CTL lines AAD.10 and AAD.1. Nature of the assay: Recognition of C7A2-variant peptides by AAD transgenic mouse CTL lines (51Cr release, C1R.AAD targets). In kind it is cell-based. Conditions: lines AAD.10 and AAD.1, C1R.AAD targets, E/T 10/1.
For another assay, the system named is human CTL line ViT2. Nature of the assay: Recognition of C7A2-variant peptides by human CTL line ViT2 (51Cr release, C1R.A2.1 targets). In kind it is cell-based. To be noted: for Recognition by human CTL line (lysis of peptide-sensitized target cells): E/T 5/1, peptide titration.
A further assay concerns the target T1, HLA-A2.1 (Homo sapiens, UniProt P04439, D140Y/D185E/D98H/E176V/E277Q/G131W/G231S/I119V/I121R/I166T/I218V/L300P/L318F/N151K/N90K/P208A/P217A/Q86G/Q94H/R138H/R169H/T345S).
T1 construct: The T2 cell line is deficient in TAP1 and TAP2 transporter proteins and expresses low levels of HLA-A2.1; endogenous in cells; host or cells: T2 cell line (TAP1/TAP2-deficient)
Description: T2 binding assay: peptide stabilisation of cell-surface HLA-A2.1 (flow cytometry, BB7.2). Conditions: T2 cells; for FI0.5, the peptide concentration that increases HLA-A2.1 expression by 50% over no peptide control: overnight, with β2-microglobulin. How it is done:
FIGS. 1A and 1B. Binding of C7A2 Alanine (A) and non-Alanine (B)-substituted peptides to TAP-deficient HLA-A2.1. T2 cells were incubated overnight in a 96 well plate in CTM with 10 Φg/ml human β2-microglobulin and different peptide concentrations. The next day, cells were washed and HLA-A2.1 expression was assessed by flow cytometry using the anti HLA-A2 BB7.2 monoclonal antibody and FITC labeled goat anti mouse Ig. Results are expressed as fluorescence index (FI), calculated according to the formula: (mean fluorescence with peptide−mean fluorescence without peptide)/mean fluorescence without peptide. Background fluorescence without BB7.2 was subtracted for each individual value. FI0.5 represents those peptide concentrations that increase HLA-A2.1 expression by 50% over the no peptide control and were calculated from the titration curves for each particular peptide.
Peptide binding to HLA molecules was measured using the T2 mutant cell line according to a protocol previously described (53). T2 cells (3×10/well) were incubated overnight in 96-well plates with culture medium (1:1 mixture of RPMI 1640: EHAA containing 2.5% FBS, 100 U/ml penicillin, 100 Φg/ml streptomycin) with 10 Φg/ml β2-microglobulin (Sigma Chemical Co; St. Louis, Mo.) and different peptide concentrations. The next day, cells were washed twice with cold PBS containing 2% FBS and incubated for 30 min at 4 EC with anti HLA-A2.1 BB7.2 monoclonal antibody (1/80 dilution from hybridoma supernatant) and 5 Φg/ml FITC-labeled goat anti mouse Ig (Pharmingen; San Diego, Calif.). Cells were washed twice after each incubation and HLA-A2.1 expression was measured by flow cytometry on a FACScan (Becton Dickinson). HLA-A2.1 expression was quantified as fluorescence index (FI) according to the formula: FI=(mean fluorescence with peptide—mean fluorescence without peptide)/mean fluorescence without peptide. Background fluorescence without BB7.2 antibody was subtracted for each individual value. In order to compare the different peptides, FI0.5, the peptide concentration that increases HLA-A2.1 expression by 50% over no peptide control background, was calculated from the titration curve for each peptide.
The binding affinity of wild-type C7A2 peptide (C7A2-WT) was evaluated with a T2 binding assay (53), which measures the cell surface stabilization of HLA-A2.1 molecules after incubation with peptide. In order to compare the different peptides, a fluorescence index value of 0.5 (FI0.5), the peptide concentration that increases HLA-A2.1 expression by 50%, was chosen as a way to compare titrations of the peptides and relative affinity for MHC molecules. Using this method, FI0.5 of 10 ΦM was calculated for C7A2-WT.
A general note: A flow cytometer gives signals particle by particle.

The subject of assay [2] is A2Kb transgenic mice. To be noted: 50 nmol, targets with 10 ΦM peptide. As to the method:
(§1) FIGS. 8A and 8B. […] AAD (A) and A2Kb (B) transgenic mice were immunized with 50 nmol CTL epitope 8A plus 50 nmol HBVc 128-140 helper epitope in IFA. Two weeks later, mice were boosted under the same conditions and 10-14 days after the boost, spleen cells were removed and stimulated in vitro with 10 ΦM CTL peptide-pulsed spleen cells. After two weeks of in vitro stimulation, a CTL assay was performed with target cells (Con A blasts) incubated with the different peptides at 10 ΦM.
(§2) This peptide is common in viral isolates from HCV genotypes 2a and 2b (56,57).

In assay [3] the test system is AAD transgenic mice. Conditions: 50 nmol, targets with 10 ΦM peptide. As to the method: as §1, §2
The subject of assay [4] is AAD transgenic mice. Nature of the assay: In vivo immunogenicity of C7A2-derived peptides in AAD transgenic mice (CTL assay). To be noted: 50 nmol CTL epitope plus helper epitope, GM-CSF, IL-12 in IFA; targets pulsed with immunizing peptide. Also on record: species or system mouse.
Assay [5] has as its system AAD transgenic mice. Nature of the assay: Induction of CTL immune response against C7A2-WT in AAD transgenic mice. Conditions: 50 or 15 nmol CTL epitope; for CTL response to C7A2-WT after immunization: targets pulsed with C7A2-WT. In kind it is in vivo, mouse. The source says: FIGS. 5A and 5B. […] Two weeks later, mice were boosted under the same conditions and 10-14 days after the boost, spleen cells were removed and stimulated in vitro with 10 ΦM CTL peptide-pulsed spleen cells.

Assay [6] deals with short term CTL lines from AAD transgenic mice. To be noted: C1R.AAD targets titrated with C7A2-WT, E:T 10:1. The source says:
FIG. 7. […] Two weeks later, mice were boosted under the same conditions and 10-14 days after the boost, spleen cells were removed and stimulated in vitro with 10 ΦM CTL peptide-pulsed spleen cells.

Assay [7] concerns A2Kb transgenic mice. Nature of the assay: Induction of CTL immune response against C7A2-WT in A2Kb transgenic mice. To be noted: 50 nmol, E/T 120:1 for C7A2-WT, 70:1 for 8A. The class given is in vivo, mouse. The source says:
FIG. 6. […] Two weeks later, mice were boosted under the same conditions and 10-14 days after the boost, spleen cells were removed and stimulated in vitro with 10 ΦM CTL peptide-pulsed spleen cells.

Entries after “also recorded” stand apart in the source; their conditions may differ.

Here are results for three substances from patent publication US7341726B2, “Modified HCV peptide immunogens” (The United States of America as represented by the …, priority 1998, dated 2008).

In the case of “8V: C7A2 peptide with position 8 L replaced by V; sequence common in HCV genotypes 2a and 2b (DLMGYIPVV) [Peptide 8V, reference compound]”, in [1], the “Recognition by AAD mouse CTL lines (sensitization of target cells)” value is listed as “recognized at higher concentrations than determined for C7A2-WT”. The “Recognition by human CTL line (lysis of peptide-sensitized target cells)” value with human CTL line ViT2 is recorded as “behaved similarly to C7A2-WT”. Besides, the “FI0.5, the peptide concentration that increases HLA-A2.1 expression by 50% over no peptide control” value with HLA-A2.1 was 15 ΦM.
Regarding DLMGYIPAV [Peptide 8A], the “Recognition by AAD mouse CTL lines (sensitization of target cells)” value in [1] is “able to sensitize target cells in a concentration range around that of C7A2-WT”. In the assay on human CTL line ViT2, the “Recognition by human CTL line (lysis of peptide-sensitized target cells)” value is listed as “higher levels of lysis than C7A2-WT”. Besides, the “Titration concentration relative to C7A2-WT” value in the assay on human CTL line ViT2 (human CTL line) was 10 fold lower concentrations. Further, the “Cross-recognition of peptide 8V by CTL induced by immunization” value in the assay on A2Kb transgenic mice [2] was “recognize peptide 8V”. Also, the “Cross-recognition of peptide 8V by CTL induced by immunization” value in the assay with AAD transgenic mice [3] was “recognize peptide 8V”. On HLA-A2.1, the “Binding to HLA-A2.1 (in words, compared with C7A2-WT)” value was “higher affinity; also recorded: bind at lower concentrations than C7A2-WT” and the “FI0.5, the peptide concentration that increases HLA-A2.1 expression by 50% over no peptide control” value is on record as “around 2 ΦM”. Moreover, the “Induction of CTL response by immunization” value with AAD transgenic mice [4] is “able to induce clear CTL responses; also recorded: induced higher levels of lysis”. Moreover, in the assay with AAD transgenic mice [5] (targets pulsed with 8A), the “CTL response to 8A after immunization” value is recorded as “positive responses to 8A itself”. Also, the “CTL response to C7A2-WT after immunization” value in the assay with AAD transgenic mice [5] is reported as “strong responses to C7A2-WT”. In assay [6], the “C7A2-WT concentration for comparable killing, CTL raised against 8A versus CTL raised against C7A2-WT” value was “more than 100 fold lower”. In addition, the “CTL immune response after immunization” value with A2Kb transgenic mice [7] was “higher level of response”.
In the case of “DLMGYIPLV [Peptide C7A2-WT, naturally occurring peptide at positions 132-140 in the HCV core polypeptide, reference compound]”, the “FI0.5, the peptide concentration that increases HLA-A2.1 expression by 50% over no peptide control” value with HLA-A2.1 is given as 10 ΦM. Further, the “Induction of CTL response by immunization” value in the assay on AAD transgenic mice [4] is listed as “able to induce clear CTL responses”. Moreover, in the assay on AAD transgenic mice [5], the “CTL response to C7A2-WT after immunization” value is reported as “two of the four animals”. For the same substance, the “CTL immune response after immunization” value in the assay on A2Kb transgenic mice [7] is on record as “low response”.
